Like-named read-outs stand apart in the source and are kept apart here.
Columns and labels:
L. donovani = assay: In vitro antiparasitic assay against L. donovani amastigotes (PicoGreen); format: cell-based; details: Leishmania donovani, I = inactive at 10 µg/mL
Description: Promastigotes cultures of L. donovani are maintained in continuous log phase growth in Liver Infusion Tryptose (LIT) Medium, pH 7.2, supplemented with 10 % Fetal Bovine Serum (FBS) at 28 °C. For promastigote transformation into amastigote forms, 1 mL of promastigotes log phase culture is transferred into 5 mL of Medium 199 Modified (SIGMA-Cat M3769) pH 5.5, supplemented with 0.1 g/L L-glutamine, 2.2 g/L sodium bicarbonate, 2 g Glucose, 5 mL penicillin–streptomycin and 20 % FBS and maintained at 35 °C until its use for bioassays.
(§1) Dry samples were diluted in 100 % DMSO (dimethylsulfoxide) to obtain a concentration of 4 mg/mL. Samples are used immediately in the bioassay and stored at −20 °C in the dark until results are obtained. All assays are performed in sterile 96-well microtitre culture plates (Costar Cat 3595). In a primary screening samples are tested in duplicate wells at a final concentration of 10 μg/mL. […] The IC50 is analyzed with the Excel Add-On software LSW Data Analysis Tool. The concentration that inhibited the growth of the parasites to 50 % (IC50) was calculated through the inhibition curve of the obtained optical density values, and compared to the untreated controls.
(§2) L. donovani and P. falciparum A […] is used to determine the amount of parasites in culture. After 48 and 72 h incubation, respectively, 1 % PicoGreen® solution is added to all wells in the dark. After shaking, the plate is taken into a microplate reader employing 485/20 nm excitation and 528/20 nm emission filter sets.

T. cruzi [1] = assay: In vitro T. cruzi growth inhibition, Tulahuen clone C4 expressing β-galactosidase, in Vero cells; format: cell-based; details: Trypanosoma cruzi, strain Tulahuen, I = inactive at 10 µg/mL, read-out: Antiparasitic activity IC50, T. cruzi
Description: T. cruzi (Tulahuen) C4 strain lactosidase (Lac Z) gene. The strain is maintained on VERO Cells (African Green Monkey cell line obtained from ATCC on 2006), grown in monolayers in RPM-I1640 medium, supplemented with 10 % heat inactivated FBS. All cultures and assays are conducted at 37 °C under an atmosphere of 5 % CO2/95 % air mixture.
as §1
T. cruzi In this assay, a colorimetric method is used to determine the inhibition of parasite growth as detected by reduction of β-galactosidase (β-Gal) as a reporter gene, expressed by the Tulahuen clone C4 of T. cruzi. Assays are performed on […], the intracellular form of the parasite infecting African green monkey kidney (VERO) cells, exposed during 120 h to different concentrations (50, 10 and 2 µg/mL) of the test substance. The resulting colour from the cleavage of chlorophenol red-β-D-galactoside (CPRG) by β-Gal expressed by the parasite, was measured using a Benchmark Bio-Rad microplate reader at 570 nm.

P. falciparum [2] = assay: In vitro antiplasmodial assay, chloroquine-resistant strain Indochina W2 (PicoGreen); format: cell-based; details: Plasmodium falciparum, I = inactive at 10 µg/mL, read-out: Antiparasitic activity IC50, P. falciparum
Description: The cultures are kept in synchrony by thermal cycling incubation and are maintained in continuous log phase growth in RPM-I1640 medium (SIGMA) supplemented with 2 % washed human O Rh positive (+) erythrocytes, 25 mM HEPES, […] NaHCO3, and 10 % Human Serum from an O Rh+ donor. All cultures and assays are conducted at 37 °C under an atmosphere of 5 % CO2 and 5 % O2, with a balance of N2 (90 %).
as §1, §2

[3] = system: α-glucosidase from baker's yeast; assay: α-Glucosidase inhibitory assay (PNP-G substrate) and kinetic analysis; format: biochemical, S. cerevisiae
Description: Lineweaver–Burk plots were constructed using different concentrations of substrate and triterpenes 1–5.
The α-glucosidase inhibitory assay was performed according to Chan and collaborators (2010), with modifications. α-glucosidase from baker’s yeast purchased from Sigma Chemical Co. The inhibition was measured spectrophotometrically at pH 7.0 and 37 °C employing 2 mM p-nitrophenyl α-D-glucopyranoside (PNP-G) as a substrate and 32 mU/mL of enzyme, in 100 mM potassium phosphate buffer (enzyme stock). […] The absorbance (A) of 4-nitrophenol released by the hydrolysis of PNP-G was measured at 400 nm by Synergy HT Bio Tek microplate spectrophotometer. […] After incubating, 150µL of substrate was added and further incubated for 20 min at 37 °C. All assays are performed in 96-well microplates (Greiner bio-one 655101) in duplicate. The activity of samples was calculated as a percentage in comparison to a control (DMSO or MeOH instead of sample solution) according with the following equation:
%Inhibition=(ΔAcontrol-ΔAsample)/ΔAcontrol×100%
The concentration required to inhibit activity of the enzyme by 50 % (IC50) was calculated by regression analysis.

[4] = Cytotoxicity bioassay (MTT); format: cell-based; details: African green monkey, five days, I = inactive at 10 µg/mL
Description: Vero cells were seeded in 96-well plates in RPM-I1640 medium supplemented with 10 % FBS and 1 % penicillin/streptomycin. The cells were allowed to grow for 24 h before adding the test compounds, dissolved in DMSO, to final concentrations of 10, 4, 0.2 and 0.08 µg/mL. A sample with only a volume of DMSO similar to the added volume in the compounds samples was placed as a negative control in all plates. All samples were incubated for five days before staining and examining for reduction of 3-(4,5-dimethylthiazol-2-yl)-2,5-diphenyltetrazolium bromide (MTT) and analyzed 4 h later in a color plate reader at 570 nm.

P. falciparum [5] = details: read-out: IC50 of positive control for P. falciparum; positive control range; cited from earlier work
T. cruzi [6] = details: read-out: IC50 of positive control for T. cruzi; positive control range; cited from earlier work
[7] = pH 7.0, 37 °C, 2 mM PNP-G, read-out: α-glucosidase inhibition IC50
[8] = α-glucosidase IC50 in Table 2, read-out: IC50
[9] = read-out: IC50, Vero cells (cytotoxicity)

Row | SMILES | IC50 (L. donovani) | IC50 (T. cruzi [1]) | IC50 (P. falciparum [2]) | α-glucosidase inhibition IC50 ([3]; pH 7.0, 37 °C, 2 mM PNP-G) | IC50 at 5 days ([4]; Vero cells) | IC50 [3, 7] | IC50 [3, 8] | IC50 at 5 days [4, 9] | IC50 (P. falciparum [5]) | IC50 (T. cruzi [6]) | type of α-glucosidase inhibition (Lineweaver–Burk plots) ([3]; different concentrations of substrate and inhibitor) | melting point
1 | [O-][S@+]1C[C@H](O)CS1 [Compound 6, brugierol] | > 10 µg/mL | > 10 µg/mL | > 10 µg/mL | inactive | > 10 µg/mL | – | – | – | – | – | – | –
2 | O=c1c(O)c(-c2ccc(O)cc2)oc2cc(O)cc(O)c12 [Compound 8, kaempferol] | 22.9 ± 0.2 µM | > 10 µg/mL | > 10 µg/mL | – | 154.9 ± 0.6 µM | 262 µM | – | – | – | – | – | –
3 | C[C@H]1[C@H](C)CC[C@]2(C(=O)O)CC[C@]3(C)C(=CC[C@@H]4[C@@]5(C)CC[C@H](O)C(C)(C)[C@@H]5CC[C@]43C)[C@H]12 [Compound 3, ursolic acid] | 2.4 ± 0.1 µM | > 10 µg/mL | 21.9 ± 0.6 µM | – | 64.8 ± 0.3 µM | 1.08 µM | 1.08 µM | – | – | – | – | –
4 | C=C(C)[C@@H]1CC[C@]2(C(=O)O)CC[C@]3(C)[C@H](CC[C@@H]4[C@@]5(C)CC[C@H](O)C(C)(C)[C@@H]5CC[C@]43C)[C@@H]12 [Compound 5, betulinic acid] | > 10 µg/mL | > 10 µg/mL | 18 ± 0.4 µM | – | – | 2.37 µM | 2.37 µM | 131.1 ± 0.3 µM | – | – | – | –
5 | C[C@@H]1[C@H](O)[C@@H](C)/C=C/C=C/C=C/C=C/C=C/C=C/C=C/[C@H](O[C@@H]2O[C@H](C)[C@@H](O)[C@H](N)[C@@H]2O)C[C@@H]2O[C@](O)(C[C@@H](O)C[C@@H](O)[C@H](O)CC[C@@H](O)C[C@@H](O)CC(=O)O[C@H]1C)C[C@H](O)[C@H]2C(=O)O [Anfotericine B, Amphotericin B, reference compound] | 1 ± 0.12 µM | – | – | – | – | – | – | – | – | – | – | –
6 | O=c1c(O)c(-c2ccc(O)c(O)c2)oc2cc(O)cc(O)c12 [Compound 9, quercetin] | 12.6 ± 0.2 µM | 13 ± 0.4 µM | 9.7 ± 0.3 µM | – | > 10 µg/mL | 29.8 µM | – | – | – | – | – | –
7 | CCN(CC)CCCC(C)Nc1ccnc2cc(Cl)ccc12 (centres unmarked) [Chloroquine] | – | – | – | – | – | – | – | – | 0.08 to 0.1 µM | – | – | –
8 | CC1CS(=O)(=O)CCN1/N=C/c1ccc([N+](=O)[O-])o1 (centres unmarked) [Nifurtimox, reference compound] | – | 1.6 ± 0.11 µM | – | – | – | – | – | – | – | 0.15 to 13.4 µM | – | –
9 | CC1(C)CC[C@]2(C(=O)O)CC[C@]3(C)C(=CC[C@@H]4[C@@]5(C)CC[C@H](O)C(C)(C)[C@@H]5CC[C@]43C)[C@@H]2C1 [Compound 4, oleanolic acid] | 5.3 ± 0.2 µM | > 10 µg/mL | > 10 µg/mL | – | 140.8 ± 0.5 µM | 0.98 µM | 0.98 µM | – | – | – | – | –
10 | CC1(C)CC[C@]2(C)CC[C@]3(C)C(=CC[C@@H]4[C@@]5(C)CC[C@H](O)C(C)(C)[C@@H]5CC[C@]43C)[C@@H]2C1 [Compound 2, β-amyrine] | > 10 µg/mL | > 10 µg/mL | > 10 µg/mL | – | – | 0.02 µM | 0.02 µM | > 10 µg/mL | – | – | – | –
11 | C[C@H]1[C@H](C)CC[C@]2(C)CC[C@]3(C)C(=CC[C@@H]4[C@@]5(C)CC[C@H](O)C(C)(C)[C@@H]5CC[C@]43C)[C@H]12 [Compound 1, α-amyrine] | > 10 µg/mL | 19 ± 0.6 µM | > 10 µg/mL | – | > 10 µg/mL | 1.45 µM | 1.45 µM | – | – | – | – | –
12 | C[C@H]1O[C@H](O[C@H]2[C@H](O)[C@@H](O)[C@@H](O[C@H]3[C@H](O)[C@@H](O)C(O)O[C@@H]3CO)O[C@@H]2CO)[C@H](O)[C@@H](O)[C@@H]1N[C@H]1C=C(CO)[C@@H](O)[C@H](O)[C@H]1O (some centres unmarked) [acarbose, reference compound] | – | – | – | – | – | – | – | – | – | – | competitive inhibitor | –
13 | [O-][S@@+]1C[C@H](O)CS1 [Compound 7, iso-brugierol] | > 10 µg/mL | > 10 µg/mL | > 10 µg/mL | inactive | > 10 µg/mL | – | – | – | – | – | – | 82 to 83 °C

Reference: PMC4586009, “Phytochemical composition, antiparasitic and α–glucosidase inhibition activities from Pelliciera rhizophorae” (Chemistry Central Journal, 2015)
